Results taken from ChEMBL document CHEMBL1140135 (J Med Chem, 2008).

Tests used:
Thymidylate synthase = Thymidylate synthase (Homo sapiens, UniProt P04818)
Description: Inhibition of human thymidylate synthase

Dihydrofolate reductase = target: T1, Dihydrofolate reductase (Homo sapiens, UniProt P00374)
T1 sequence (P00374 whole entry): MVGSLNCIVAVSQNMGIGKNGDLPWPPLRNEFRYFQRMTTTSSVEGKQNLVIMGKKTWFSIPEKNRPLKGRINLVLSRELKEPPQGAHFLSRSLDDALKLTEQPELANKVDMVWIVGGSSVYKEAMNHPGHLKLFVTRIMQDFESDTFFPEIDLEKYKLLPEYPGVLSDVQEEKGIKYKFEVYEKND
Description: Inhibition of human recombinant DHFR

[1] = target: T2, Bifunctional dihydrofolate reductase-thymidylate synthase (Toxoplasma gondii, UniProt Q07422)
T2 sequence (Q07422 whole entry): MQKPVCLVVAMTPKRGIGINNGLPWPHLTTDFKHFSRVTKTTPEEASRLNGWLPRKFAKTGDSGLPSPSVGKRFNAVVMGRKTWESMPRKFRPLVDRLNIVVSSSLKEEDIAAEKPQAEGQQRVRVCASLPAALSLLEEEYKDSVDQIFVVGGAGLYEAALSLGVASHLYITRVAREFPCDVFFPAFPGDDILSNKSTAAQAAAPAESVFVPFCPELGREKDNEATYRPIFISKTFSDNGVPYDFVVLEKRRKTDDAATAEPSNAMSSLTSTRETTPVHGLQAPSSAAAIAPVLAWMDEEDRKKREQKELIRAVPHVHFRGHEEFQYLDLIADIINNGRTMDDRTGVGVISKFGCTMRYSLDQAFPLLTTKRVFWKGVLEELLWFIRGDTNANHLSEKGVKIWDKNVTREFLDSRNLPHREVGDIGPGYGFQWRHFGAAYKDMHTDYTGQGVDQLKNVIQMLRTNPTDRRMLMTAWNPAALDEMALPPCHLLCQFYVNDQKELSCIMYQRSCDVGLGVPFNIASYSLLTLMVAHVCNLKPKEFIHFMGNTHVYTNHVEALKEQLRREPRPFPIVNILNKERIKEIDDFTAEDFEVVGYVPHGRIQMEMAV
Description: Inhibition of Toxoplasma gondii thymidylate synthase

[2] = target: T2, Bifunctional dihydrofolate reductase-thymidylate synthase; remark: listed apart in the source
Description: Inhibition of Toxoplasma gondii DHFR

[3] = target: T3, Dihydrofolate reductase (Escherichia coli) (UniProt P0ABQ4); assay: Inhibition of Escherichia coli DHFR at >[…] uM
T3 sequence (whole entry): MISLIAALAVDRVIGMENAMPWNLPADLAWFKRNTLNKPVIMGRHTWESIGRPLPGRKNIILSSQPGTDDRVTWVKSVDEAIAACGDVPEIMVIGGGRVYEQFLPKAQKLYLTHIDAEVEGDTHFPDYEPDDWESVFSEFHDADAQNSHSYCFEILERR

Sequence of Thymidylate synthase (P04818 whole entry): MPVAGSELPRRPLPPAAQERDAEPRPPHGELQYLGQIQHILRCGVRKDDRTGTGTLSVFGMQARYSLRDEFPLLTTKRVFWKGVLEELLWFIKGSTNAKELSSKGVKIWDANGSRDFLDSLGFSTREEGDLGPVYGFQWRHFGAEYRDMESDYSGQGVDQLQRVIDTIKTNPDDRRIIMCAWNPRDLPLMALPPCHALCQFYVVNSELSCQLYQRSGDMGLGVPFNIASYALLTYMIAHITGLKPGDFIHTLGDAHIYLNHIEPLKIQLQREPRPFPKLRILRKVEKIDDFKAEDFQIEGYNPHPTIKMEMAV

| SMILES | IC50 (Thymidylate synthase) [nM] | IC50 (Dihydrofolate reductase) [nM] | IC50 [1] [nM] | IC50 [2] [nM] | inhibition [3] [%] |
| --- | --- | --- | --- | --- | --- |
| Cc1sc2nc(N)[nH]c(=O)c2c1Sc1ccc([N+](=O)[O-])cc1 | 110 | – | – | – | – |
| Cc1sc2nc(N)[nH]c(=O)c2c1Sc1ccc(F)cc1 | 1100 | 2600 | – | – | – |
| Cc1sc2nc(N)[nH]c(=O)c2c1Sc1ccncc1 | 280 | 2500 | 1400 | 34 | – |
| Cc1sc2nc(N)[nH]c(=O)c2c1Sc1ccc(Cl)cc1 | 260 | 1500 | 2600 | 31 | – |
| Cc1sc2nc(N)[nH]c(=O)c2c1Sc1ccc(Cl)c(Cl)c1 | 110 | – | 1200 | 28 | 0 |
| Cc1sc2nc(N)[nH]c(=O)c2c1Sc1ccccc1 | 1200 | 3500 | 8400 | 120 | – |
| Cc1sc2nc(N)[nH]c(=O)c2c1Sc1ccc2ccccc2c1 | 120 | 2900 | 1200 | 44 | – |
| Cc1[nH]c2nc(N)[nH]c(=O)c2c1Sc1ccc(C(=O)N[C@@H](CCC(=O)O)C(=O)O)cc1 | – | 2200 | – | – | – |
| Cc1sc2nc(N)[nH]c(=O)c2c1Sc1cc(Cl)cc(Cl)c1 | 1000 | 5600 | 2300 | 64 | 0 |
